Test results reported in BigSolDB 2.1.

Nc1cccc2ccccc12
solubility (mole fraction)
Conditions | 273.15 K | 278.15 K | 283.15 K | 288.15 K | 293.15 K | 298.15 K | 303.15 K | 308.15 K
in acetone | 0.552 | 0.59 | 0.636 | 0.684 | 0.724 | 0.778 | 0.839 | 0.898
in acetonitrile | 0.527 | 0.572 | 0.619 | 0.658 | 0.708 | 0.766 | 0.829 | 0.878
in cyclohexane | – | 0.00758 | 0.00992 | 0.014 | 0.0185 | 0.0263 | 0.0364 | 0.0621
in ethanol | 0.133 | 0.176 | 0.231 | 0.323 | 0.431 | 0.555 | 0.698 | 0.833
in ethyl acetate | 0.49 | 0.528 | 0.57 | 0.611 | 0.66 | 0.728 | 0.788 | 0.863
in isobutanol | 0.0584 | 0.0819 | 0.118 | 0.157 | 0.251 | 0.382 | 0.585 | 0.841
in isopropanol | 0.0524 | 0.0814 | 0.123 | 0.198 | 0.294 | 0.461 | 0.637 | 0.845
in methanol | 0.192 | 0.245 | 0.296 | 0.375 | 0.477 | 0.591 | 0.703 | 0.845
in n-butanol | 0.112 | 0.145 | 0.194 | 0.247 | 0.353 | 0.487 | 0.664 | 0.84
in n-butyl acetate | 0.441 | 0.485 | 0.532 | 0.585 | 0.645 | 0.706 | 0.777 | 0.849
in n-heptane | 0.00549 | 0.0073 | 0.00879 | 0.0115 | 0.0155 | 0.0205 | 0.026 | 0.0346
in n-propanol | 0.0925 | 0.133 | 0.181 | 0.256 | 0.365 | 0.512 | 0.669 | 0.838
